In patent US10047031B2, “Organic compounds” (GIVAUDAN SA, priority 2014, dated 2018):

What was measured:
mice = conditions: mouse, in vivo; cited from earlier work
guinea-pigs = conditions: guinea pig, in vivo; cited from earlier work
primates = conditions: cited from earlier work
rat hepatocytes = test: in vitro metabolism in rat hepatocytes in suspension (GC-MS); format: in vitro ADME; conditions: incubated with hepatocytes isolated from rats, 'substantially no' = below limit of detection, i.e. <1%
Text: Decrease of Lilial™ and the compound released by the precursor of the present invention, and formation of the corresponding benzoic acid derivative may be analysed by GC-MS.
By “substantially no benzoic acid derivative” is meant that the concentration of said derivative is below the limit of detection, i.e. <1%. As such, the precursor releasing the compound of formula (I) provides perfumers with an eminently suitable surrogate for the valuable yet problematic Lilial™.

Row | enzymatic degradation to / formation of the corresponding benzoic acid derivative (rat hepatocytes) | enzymatic degradation to / formation of the corresponding benzoic acid derivative (rat hepatocytes; listed as compound released by the precursor of the present invention) | Structure (SMILES) | effects (reproductive toxicity) (mice) | effects (reproductive toxicity) (guinea-pigs) | effects (reproductive toxicity) (primates)
1 | – | – | CC(C=O)Cc1ccc(C(C)(C)C)cc1 (centres unmarked) [Lilial™, 3-(4-tert-butylphenyl)-2-methylpropanal] | No effects | No effects | No effects
2 | no, or substantially no | not susceptible | Cc1cc(CC(C)C)ccc1CCC=O [compound of formula (I), 3-(4-isobutyl-2-methylphenyl)propanal] | – | – | –
